System: anxiety
Assay: Intranasal ketamine spray given to individual adult subjects for anxiety before a procedure or flight (case reports)

CNC1(c2ccccc2Cl)CCCCC1=O (stereo not drawn) [ketamine]
duration of relief from anxiety and calming effect (Example I: healthy person, intranasal, about 0.2-0.3 mg/kg): 15 to 30 min
development of anxiety during the dental procedure (Example II: person with severe dental phobia, dental extraction under local anesthetic, intranasal unit dose before travel, additional dosage in the waiting room): without the development of anxiety
duration of relief from anxiety and calming effect (Example II: person with severe dental phobia, intranasal unit dose as in Example I): 15 to 30 min

Source: patent US20250255834A1, “ANXIOLYTIC COMPOSITION, FORMULATION AND METHOD OF USE” (priority 2012, published 2025)
